Laboratory results published in patent US20260042764A1, “COMPOSITIONS AND METHODS FOR INHIBITION OF KRAS” (TheRas, Inc., priority 2022, published 2026).

These compounds were tested on AsPC-1 cells (KRAS G12D) (assay: Cell-based pERK HTRF assay in AsPC-1 cells (Biological Example 5)). Settings: AsPC-1 (KRAS G12D) cells.
Experimental: Biological Example 5: Cell-based PERK HTRF assay in AsPC-1, SW1900, HPAC, Capan-2, RKN, H358, HCT116, KP-2, H1573, A549, MKN1, and HT1080 cells
The inhibition of ERK phosphorylation, as measured using the HTRF Advanced Phospho-ERK 1/2 (Thr202/Tyr204) Detection Assay kit (Perkin Elmer), was used to determine the effectiveness of test compounds in disrupting KRAS-driven protein/effector signaling in cells.
On day 1, cells were seeded into 96-well plates at 2.5×10^4 cells/well in 100 μL of complete growth media supplemented with 10% fetal bovine serum (FBS) and incubated at 37° C., in the presence of 5% CO2.
On day 2, cells were treated with compounds diluted in DMSO at 0.25% final DMSO concentration. Compounds were dosed in a 9-point concentration curve with three-fold dilution between concentrations. Cells were incubated in the presence of compound for two hours at 37° C. Following this treatment period, cells were harvested by aspirating the media, adding 40 μL of kit-supplied 1x lysis buffer per well, and shaking for 30 minutes at 250 rpm at room temperature.
Following cell lysis, samples were homogenized by pipetting up and down twenty times and 16 μL of cell lysate per well was transferred from the 96-well cell culture plate to two wells of a 384-well detection plate. A complete detection buffer was prepared by diluting D2 and Eu Cryptate antibodies 1:20 in kit-provided detection solution, 4 μL of complete detection buffer was then added to each well with lysate. Plates were incubated with gentle rocking for 24 hours at 4° C.
Following this incubation period, plates were centrifuged at 500×g for one minute and analyzed on a CLARIOstar plate reader. Data was imported into Microsoft Excel and the signal from the 665 nm channel was divided by the signal from the 620 nm channel. % pERK was calculated as: […]
Data was imported to the Prism software package (Graphpad) and EC50 values were calculated using the log (inhibitor) vs, response—variable slopc (Four parameters) model.
`CCN(c1nc(OCC23CCCN2CC(F)C3)nc2c(F)c(-c3ccc(F)c4sc(N)c(C#N)c34)c(C(F)(F)F)cc12)C1CC(C)N(C(=O)N2CC(F)C2)C1` (stereo not drawn) [Compound 759] was tested, and the IC50 was no more than 100 nM. `Cc1c(C(=O)N(C)C)nn2c1CN(c1nc(OC[C@@]34CCCN3C[C@H](F)C4)nc3c(F)c(-c4ccc(F)c5sc(N)c(C#N)c45)c(C(F)(F)F)cc13)CC2` (atropisomer, axis not shown; (aS)) [Compound 590, 5-((S)-7-(2-amino-3-cyano-7-fluorobenzo[b]thiophen-4-yl)-8-fluoro-2-(((2R,7aS)-2-fluorotetrahydro-1H-pyrrolizin-7a(5H)-yl)methoxy)-6-(trifluoromethyl)quinazolin-4-yl)-N,N,3-trimethyl-4,5,6,7-tetrahydropyrazolo[1,5-a]pyrazine-2-carboxamide] gave an IC50 of no more than 100 nM.

Same assay, conditions: Homo sapiens, ASPC1, AsPC-1 (KRAS G12D) cells
`C/C=C/C(=O)N1CC[C@H](N(CC)c2nc(OC[C@@]34CCCN3C[C@H](F)C4)nc3c(F)c(-c4ccc(F)c5sc(N)c(C#N)c45)c(C(F)(F)F)cc23)C1` (atropisomer, axis not shown) [Compound 674] was tested, and the IC50 was no more than 100 nM. In the case of `CCN(c1nc(OC[C@@]23CCCN2C[C@H](F)C3)nc2c(F)c(-c3ccc(F)c4sc(N)c(C#N)c34)c(C(F)(F)F)cc12)[C@H]1CCN(C(=O)N2CC(F)C2)C1` (atropisomer, axis not shown) [Compound 606], the IC50 is reported as no more than 100 nM. `CCN(c1nc(OC[C@@]23CCCN2C[C@H](F)C3)nc2c(F)c(-c3ccc(F)c4sc(N)c(C#N)c34)c(C(F)(F)F)cc12)[C@H]1C[C@@H](C)N(C(=O)C2COC2)C1` (atropisomer, axis not shown) [Compound 586] showed an IC50 of no more than 100 nM. Work on `CCN(c1nc(OC[C@@]23CCCN2C[C@H](F)C3)nc2c(F)c(-c3ccc(F)c4sc(N)c(C#N)c34)c(C(F)(F)F)cc12)[C@H]1C[C@H](C)N(C(=O)N2CC(OC)C2)C1` (atropisomer, axis not shown) [Compound 764] yielded an IC50 of no more than 100 nM. Compound `CCN(c1nc(OC[C@@]23CCCN2C[C@H](F)C3)nc2c(F)c(-c3ccc(F)c4sc(N)c(C#N)c34)c(C(F)(F)F)cc12)[C@H]1C[C@H](COC)N(C(=O)C2CC2)C1` (atropisomer, axis not shown) [Compound 696] has an IC50 of no more than 100 nM. For `C[C@H]1Cn2nc(C(=O)N(C)C)cc2CN1c1nc(OC[C@@]23CCCN2C[C@H](F)C3)nc2c(F)c(-c3ccc(F)c4sc(N)c(C#N)c34)c(C(F)(F)F)cc12` (atropisomer, axis not shown) [Compound 610], the IC50 was no more than 100 nM. `CCN(c1nc(OC[C@@]23CCCN2C[C@H](F)C3)nc2c(F)c(-c3ccc(F)c4sc(N)c(C#N)c34)c(C(F)(F)F)cc12)[C@H]1CC(=O)N2CCC[C@@H]12` (atropisomer, axis not shown; (aS)) [Compound 697, 2-amino-4-((S)-4-(ethyl((1S,7aS)-3-oxohexahydro-1H-pyrrolizin-1-yl)amino)-8-fluoro-2-(((2R,7aS)-2-fluorotetrahydro-1H-pyrrolizin-7a(5H)-yl)methoxy)-6-(trifluoromethyl)quinazolin-7-yl)-7-fluorobenzo[b]thiophene-3-carbonitrile] was tested, and the IC50 was no more than 100 nM. Compound `CCN(c1nc(OC[C@@]23CCCN2C[C@H](F)C3)nc2c(F)c(-c3ccc(F)c4sc(N)c(C#N)c34)c(C(F)(F)F)cc12)[C@H]1CCN(C(=O)C2CC2)[C@@H]1C` (atropisomer, axis not shown) [Compound 579] has an IC50 of no more than 100 nM. `CCN(c1nc(OC[C@@]23CCCN2C[C@H](F)C3)nc2c(F)c(-c3ccc(F)c4sc(N)c(C#N)c34)c(C(F)(F)F)cc12)[C@H]1C[C@H](C)N(C(=O)OC)C1` (atropisomer, axis not shown) [Compound 704] showed an IC50 of no more than 100 nM. `CCN(c1nc(OC[C@@]23CCCN2C[C@H](F)C3)nc2c(F)c(-c3ccc(F)c4sc(N)c(C#N)c34)c(C(F)(F)F)cc12)[C@H]1CCN(C(=O)c2ncco2)C1` (atropisomer, axis not shown) [Compound 584] gave an IC50 of no more than 100 nM.
